Source: patent US6333176A (Degussa Aktiengesellschaft, priority 1994, dated 2001)
Peptide text beside a SMILES is read from it.

Target: T1, peptide amidase from Xanthomonas maltophilia (Stenotrophomonas maltophilia, UniProt Q8RJN5)
T1 construct: wild type, not recombinant
T1 sequence (Q8RJN5 34-540): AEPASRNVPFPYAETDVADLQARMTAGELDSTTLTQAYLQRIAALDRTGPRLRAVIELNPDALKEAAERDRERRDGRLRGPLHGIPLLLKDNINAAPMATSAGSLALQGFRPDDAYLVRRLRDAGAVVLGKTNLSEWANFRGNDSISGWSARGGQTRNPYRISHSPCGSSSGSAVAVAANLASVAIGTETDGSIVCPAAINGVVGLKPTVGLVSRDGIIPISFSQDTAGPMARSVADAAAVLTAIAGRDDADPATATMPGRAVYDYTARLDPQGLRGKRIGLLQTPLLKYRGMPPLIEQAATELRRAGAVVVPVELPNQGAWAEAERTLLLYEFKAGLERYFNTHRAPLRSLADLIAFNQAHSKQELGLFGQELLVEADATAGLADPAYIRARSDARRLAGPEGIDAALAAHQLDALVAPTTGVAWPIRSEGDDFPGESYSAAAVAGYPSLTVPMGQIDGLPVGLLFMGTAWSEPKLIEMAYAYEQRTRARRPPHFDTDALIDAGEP
Experiment: Substrate spectrum of peptide amidase, enzymatic determination of the released ammonia
Type: biochemical
Conditions: substrate 10 mM, 18 mU peptide amidase per ml, 50 mM tris/HCl pH 7.5, 30° C., 3 hours
Method: 18 mU of peptide amidase (purification state after the gel filtration) per ml test batch was used for the substrate spectrum of peptide amidase from Xanthomonas maltophilia. The concentration of the tested substrates was 10 mM in the reaction batch. Unless otherwise indicated, L-amino acid derivatives were used. The incubation took place in 50 mM tris/HCl, pH 7.5 at 30° C. for 3 hours. The reaction was stopped by heating for 5 minutes at 95° C. The determination of activity took place using enzymatic determination of the released ammonia (Bergmeyer, U. (1985): Methods of Enzymatic Analysis, p. 459, VCH Verlagsgesellschaft, Weinheim).

## CC(=O)N[C@@H](CCCCN)C(N)=O [Ac-Lys-NH2]
  Relative conversion (conversion of N-acetyl amino acid amides, Table 4b): 175%

## C[C@H](N)C(=O)NCC(N)=O [Ala-Gly-NH2] (H-Ala-Gly-NH2)
  Relative conversion (conversion of dipeptide amides, Table 4a): 39%

## CC(=O)N[C@@H](Cc1c[nH]cn1)C(N)=O [Ac-His-NH2]
  Relative conversion (conversion of N-acetyl amino acid amides, Table 4b): 177%

## NCC(=O)N[C@@H](CC(N)=O)C(=O)O [Gly-Asn-OH] (H-Gly-Asn-OH)
  Relative conversion (conversion of dipeptide amides, Table 4a): 0%

## NC(=O)[C@H](Cc1ccc(O)cc1)NC(=O)c1ccccc1 [Bz-Tyr-NH2]
  Relative conversion (influence of protective group and adjacent amino acid, Table 4c): 173%

## CC(=O)N[C@@H](Cc1ccccc1)C(N)=O [Ac-Phe-NH2]
  Relative conversion (conversion of N-acetyl amino acid amides, Table 4b): 134%

## NC(=O)CNC(=O)[C@@H]1CCCN1 [Pro-Gly-NH2] (H-Pro-Gly-NH2)
  Relative conversion (conversion of dipeptide amides, Table 4a): 66%

## CC(=O)N1CCC[C@H]1C(N)=O [Ac-Pro-NH2]
  Relative conversion (conversion of N-acetyl amino acid amides, Table 4b): 0%

## CC(=O)N[C@@H](CO)C(N)=O [Ac-Ser-NH2]
  Relative conversion (conversion of N-acetyl amino acid amides, Table 4b): 58%

## NC(=O)CNC(=O)[C@@H](N)Cc1ccccc1 [Phe-Gly-NH2] (H-Phe-Gly-NH2)
  Relative conversion (conversion of dipeptide amides, Table 4a): 51%

## C[C@H](N)C(=O)N[C@@H](C)C(N)=O [Ala-Ala-NH2] (H-Ala-Ala-NH2)
  Relative conversion (conversion of dipeptide amides, Table 4a): 211%
  Relative conversion (influence of protective group and adjacent amino acid, Table 4c): 211%

## CC(C)[C@H](N)C(=O)N[C@@H](Cc1ccccc1)C(N)=O [Val-Phe-NH2] (H-Val-Phe-NH2)
  Relative conversion (conversion of dipeptide amides, Table 4a): 140%

## CC(C)C[C@H](N)C(=O)N[C@@H](C)C(N)=O [Leu-Ala-NH2] (H-Leu-Ala-NH2)
  Relative conversion (conversion of dipeptide amides, Table 4a): 217%
  Relative conversion (influence of protective group and adjacent amino acid, Table 4c): 217%

## NC(=O)[C@H](Cc1ccccc1)NC(=O)[C@@H](N)Cc1ccc(O)cc1 [Tyr-Phe-NH2] (H-Tyr-Phe-NH2)
  Relative conversion (conversion of dipeptide amides, Table 4a): 190%

## CC(=O)N[C@@H](Cc1ccc(O)cc1)C(N)=O [Ac-Tyr-NH2]
  Relative conversion (conversion of N-acetyl amino acid amides, Table 4b): 123%
  Relative conversion (influence of protective group and adjacent amino acid, Table 4c): 123%

## NC(=O)[C@H](Cc1ccccc1)NC(=O)[C@@H](N)CO [Ser-Phe-NH2]
  Relative conversion (conversion of dipeptide amides, Table 4a): 217%

## CC(=O)N[C@@H](CCC(=O)O)C(N)=O [Ac-Glu-NH2]
  Relative conversion (conversion of N-acetyl amino acid amides, Table 4b): 162%

## CC(=O)N[C@@H](C)C(N)=O [Ac-Ala-NH2]
  Relative conversion (conversion of N-acetyl amino acid amides, Table 4b): 182%

## CC(=O)N[C@@H](CS)C(N)=O
  Relative conversion (conversion of N-acetyl amino acid amides, Table 4b): 82%

## CC(C)C[C@H](N)C(=O)NCC(N)=O [Leu-Gly-NH2] (H-Leu-Gly-NH2)
  Relative conversion (conversion of dipeptide amides, Table 4a): 54%

## CC(=O)N[C@H](C(N)=O)c1ccccc1 [Ac-Phg-NH2, N-acetylphenylglycine amide]
  Relative conversion (conversion of N-acetyl amino acid amides, Table 4b): 28%

## NC(=O)[C@H](Cc1ccccc1)NC(=O)[C@@H](N)Cc1cnc[nH]1 [His-Phe-NH2] (H-His-Phe-NH2)
  Relative conversion (conversion of dipeptide amides, Table 4a): 137%

## NCC(=O)NCC(N)=O [Gly-Gly-NH2]
  Relative conversion (conversion of dipeptide amides, Table 4a): 8%

## CC(=O)N[C@@H](Cc1c[nH]c2ccccc12)C(N)=O [Ac-Trp-NH2]
  Relative conversion (conversion of N-acetyl amino acid amides, Table 4b): 157%

## NC(=O)CNC(=O)[C@@H](N)Cc1ccc(O)cc1 [Tyr-Gly-NH2]
  Relative conversion (conversion of dipeptide amides, Table 4a): 54%

## CSCC[C@H](NC(=O)[C@@H](N)CCCNC(=N)N)C(N)=O [Arg-Met-NH2] (H-Arg-Met-NH2)
  Relative conversion (influence of protective group and adjacent amino acid, Table 4c): 125%

## NCC(=O)N[C@@H](Cc1ccccc1)C(N)=O [Gly-Phe-NH2] (H-Gly-Phe-NH2)
  Relative conversion (conversion of dipeptide amides, Table 4a): 214%

## CC(=O)N[C@H](C(N)=O)C(C)C [Ac-Val-NH2]
  Relative conversion (conversion of N-acetyl amino acid amides, Table 4b): 1%

## CC[C@H](C)[C@H](NC(C)=O)C(N)=O [Ac-Ile-NH2]
  Relative conversion (conversion of N-acetyl amino acid amides, Table 4b): 6%

## NCC(=O)N[C@@H](Cc1ccc(O)cc1)C(N)=O [Gly-Tyr-NH2] (H-Gly-Tyr-NH2)
  Relative conversion (conversion of dipeptide amides, Table 4a): 174%
  Relative conversion (influence of protective group and adjacent amino acid, Table 4c): 174%

## CC(C)[C@H](N)C(=O)NCC(N)=O [Val-Gly-NH2] (H-Val-Gly-NH2)
  Relative conversion (conversion of dipeptide amides, Table 4a): 22%

## C[C@H](NC(=O)[C@@H](N)Cc1ccccc1)C(N)=O [Phe-Ala-NH2]
  Relative conversion (conversion of dipeptide amides, Table 4a): 203%
  Relative conversion (influence of protective group and adjacent amino acid, Table 4c): 203%

## CSCCC(NC(N)=O)C(N)=O (racemic) [N-Carbamoyl-D,L-Met-NH2]
  Relative conversion (influence of protective group and adjacent amino acid, Table 4c): 77%

## CC(=O)N[C@H](C(N)=O)[C@@H](C)O [Ac-Thr-NH2]
  Relative conversion (conversion of N-acetyl amino acid amides, Table 4b): 21%

## C[C@H](NC(=O)OCc1ccccc1)C(N)=O [Z-Ala-NH2]
  Relative conversion (influence of protective group and adjacent amino acid, Table 4c): 62%

## NC(=O)[C@H](Cc1ccccc1)NC(=O)[C@@H]1CCCN1 [Pro-Phe-NH2] (H-Pro-Phe-NH2)
  Relative conversion (conversion of dipeptide amides, Table 4a): 158%

## CC(C)C[C@H](N)C(=O)N[C@@H](Cc1ccccc1)C(N)=O [Leu-Phe-NH2] (H-Leu-Phe-NH2)
  Relative conversion (conversion of dipeptide amides, Table 4a): 203%

## C[C@@H](NC(=O)OCc1ccccc1)C(N)=O [Z-D-Ala-NH2]
  Relative conversion (influence of protective group and adjacent amino acid, Table 4c): 0%

## C[C@H](N)C(=O)N[C@@H](Cc1ccccc1)C(N)=O [Ala-Phe-NH2]
  Relative conversion (conversion of dipeptide amides, Table 4a): 218%

## N-acetyl-naphthylalanine amide [Ac-Nal-NH2]
  Relative conversion (conversion of N-acetyl amino acid amides, Table 4b): 84%

## CC(=O)N[C@@H](CCCNC(=N)N)C(N)=O [Ac-Arg-NH2]
  Relative conversion (conversion of N-acetyl amino acid amides, Table 4b): 110%

## C[C@H](N)C(=O)N[C@@H](CCC(N)=O)C(=O)O [Ala-Gln-OH] (H-Ala-Gln-OH)
  Relative conversion (conversion of dipeptide amides, Table 4a): 0%

## NC(=O)[C@@H]1CCCN1C(=O)[C@@H](N)Cc1ccc(O)cc1 [Tyr-Pro-NH2] (H-Tyr-Pro-NH2)
  Relative conversion (conversion of dipeptide amides, Table 4a): 0%

## C[C@H](N)C(=O)N[C@@H](CC(N)=O)C(=O)O [Ala-Asn-OH] (H-Ala-Asn-OH)
  Relative conversion (conversion of dipeptide amides, Table 4a): 0%

## COC(=O)NC(CCSC)C(N)=O (racemic) [N-Methoxy-D,L-Met-NH2, Nα -methoxycarbonyl-DL-methionine Amide]
  Relative conversion (influence of protective group and adjacent amino acid, Table 4c): 109%

## CC(=O)NC(CC(C)(C)C)C(N)=O (racemic) [Ac-D,L-neopentylglycine amide, Nα -acetyl-DL-neopentylglycine Amide]
  Relative conversion (conversion of N-acetyl amino acid amides, Table 4b): 131%
